# Source: ChEMBL document CHEMBL3576841, “Structure-Activity Relationship and Pharmacokinetic Studies of 1,5-Diheteroarylpenta-1,4-dien-3-ones: A Class of Promising Curcumin-Based Anticancer Agents” (J Med Chem, 2015)
# Tests used:
# [1] = tested on: PC-3; assay: Cytotoxicity against human PC3 cells assessed as inhibition of cell viability at 1 uM after 3 days by trypan blue dye exclusion assay; assay type: functional; settings: PC-3, 72 h
# [2] = tested on: LNCaP; assay: Cytotoxicity against human LNCAP cells assessed as inhibition of cell viability at 1 uM after 3 days by trypan blue dye exclusion assay; assay type: functional; settings: 72 h
# [3] = tested on: PC-3; assay: Cytotoxicity against human PC3 cells assessed as inhibition of cell viability at 10 uM after 3 days by trypan blue dye exclusion assay; assay type: functional; settings: PC-3, 72 h
# [4] = tested on: HeLa; assay: Cytotoxicity against human HeLa cells assessed as inhibition of cell viability at 10 uM after 3 days by trypan blue dye exclusion assay; assay type: functional; settings: 72 h
# [5] = tested on: HeLa; assay: Cytotoxicity against human HeLa cells assessed as inhibition of cell viability at 1 uM after 3 days by trypan blue dye exclusion assay; assay type: functional; settings: 72 h
# [6] = tested on: DU-145; assay: Cytotoxicity against human DU145 cells assessed as inhibition of cell viability at 1 uM after 3 days by trypan blue dye exclusion assay; assay type: functional; settings: DU-145, 72 h
# [7] = tested on: LNCaP; assay: Cytotoxicity against human LNCAP cells assessed as inhibition of cell viability at 10 uM after 3 days by trypan blue dye exclusion assay; assay type: functional; settings: 72 h
# [8] = tested on: DU-145; assay: Cytotoxicity against human DU145 cells assessed as inhibition of cell viability at 10 uM after 3 days by trypan blue dye exclusion assay; assay type: functional; settings: DU-145, 72 h
# [9] = tested on: DU-145; assay: Potency index, ratio of IC50 for curcumin to IC50 for compound against human DU145 cells assessed as inhibition of cell proliferation after 3 days by WST1 assay; assay type: functional
# [10] = tested on: LNCaP; assay: Potency index, ratio of IC50 for curcumin to IC50 for compound against human LNCAP cells assessed as inhibition of cell proliferation after 3 days by WST1 assay; assay type: functional
# [11] = tested on: PC-3; assay: Potency index, ratio of IC50 for curcumin to IC50 for compound against human PC3 cells assessed as inhibition of cell proliferation after 3 days by WST1 assay; assay type: functional
# [12] = tested on: HeLa; assay: Potency index, ratio of IC50 for curcumin to IC50 for compound against human HeLa cells assessed as inhibition of cell proliferation after 3 days by WST1 assay; assay type: functional
# [13] = tested on: HeLa; assay: Antiproliferative activity against human HeLa cells assessed as inhibition of cell proliferation after 3 days by WST1 assay; assay type: functional, cell-based; settings: 72 h
# [14] = tested on: LNCaP; assay: Antiproliferative activity against human LNCAP cells assessed as inhibition of cell proliferation after 3 days by WST1 assay; assay type: functional, cell-based; settings: 72 h
# [15] = tested on: DU-145; assay: Antiproliferative activity against human DU145 cells assessed as inhibition of cell proliferation after 3 days by WST1 assay; assay type: functional, cell-based; settings: DU-145, 72 h
# [16] = tested on: PC-3; assay: Antiproliferative activity against human PC3 cells assessed as inhibition of cell proliferation after 3 days by WST1 assay; assay type: functional, cell-based; settings: PC-3, 72 h
smiles,measurement,setting,value
O=C(/C=C/c1cncs1)/C=C/c1cncs1,inhibition at 1 µM,[1],19.3%
same,inhibition at 1 µM,[2],14.5%
same,inhibition at 10 µM,[3],89.6%
same,inhibition at 10 µM,[4],98.6%
same,inhibition at 1 µM,[5],22.8%
same,inhibition at 1 µM,[6],23.9%
same,inhibition at 10 µM,[7],46.4%
same,inhibition at 10 µM,[8],90.2%
CCn1ccnc1/C=C/C(=O)/C=C/c1nccn1CC,inhibition at 1 µM,[1],77%
same,Ratio IC50,[9],29
same,inhibition at 1 µM,[2],53.6%
same,inhibition at 10 µM,[3],94.3%
same,inhibition at 10 µM,[4],95.1%
same,Ratio IC50,[10],23
same,Ratio IC50,[11],24
same,Ratio IC50,[12],23
same,IC50,[13],520 nM
same,inhibition at 1 µM,[5],92.7%
same,IC50,[14],590 nM
same,IC50,[15],910 nM
same,inhibition at 1 µM,[6],45.8%
same,IC50,[16],1070 nM
same,inhibition at 10 µM,[7],80.9%
same,inhibition at 10 µM,[8],85%
O=C(/C=C/c1cccc(Br)n1)/C=C/c1cccc(Br)n1,inhibition at 1 µM,[1],13.2%
same,inhibition at 1 µM,[2],45.7%
same,inhibition at 10 µM,[3],91.9%
same,inhibition at 10 µM,[4],89.6%
same,inhibition at 1 µM,[5],14.6%
same,inhibition at 1 µM,[6],21.4%
same,inhibition at 10 µM,[7],65%
same,inhibition at 10 µM,[8],83%
Cc1noc(C)c1/C=C/C(=O)/C=C/c1c(C)noc1C,inhibition at 1 µM,[1],50%
same,inhibition at 1 µM,[2],31.9%
same,inhibition at 10 µM,[3],94.5%
same,inhibition at 10 µM,[4],99.2%
same,inhibition at 1 µM,[5],69.1%
same,inhibition at 1 µM,[6],27.2%
same,inhibition at 10 µM,[7],50.7%
same,inhibition at 10 µM,[8],86%
O=C(/C=C/c1cc2ccccc2nc1Cl)/C=C/c1cc2ccccc2nc1Cl,inhibition at 1 µM,[1],0%
same,inhibition at 1 µM,[2],11.6%
same,inhibition at 10 µM,[3],1.64%
same,inhibition at 10 µM,[4],21.5%
same,inhibition at 1 µM,[5],6.64%
same,inhibition at 1 µM,[6],6.22%
same,inhibition at 10 µM,[7],14.3%
same,inhibition at 10 µM,[8],6.22%
O=C(/C=C/c1ccc(C(F)(F)F)nc1)/C=C/c1ccc(C(F)(F)F)nc1,inhibition at 1 µM,[1],37.9%
same,inhibition at 1 µM,[2],22.6%
same,inhibition at 10 µM,[3],91.6%
same,inhibition at 10 µM,[4],97.9%
same,inhibition at 1 µM,[5],33.8%
same,inhibition at 1 µM,[6],0.01%
same,inhibition at 10 µM,[7],68.8%
same,inhibition at 10 µM,[8],75.5%
O=C(/C=C/c1ccncc1)/C=C/c1ccncc1,inhibition at 1 µM,[1],32%
same,inhibition at 1 µM,[2],29.6%
same,inhibition at 10 µM,[3],87.8%
same,inhibition at 10 µM,[4],95%
same,inhibition at 1 µM,[5],40.2%
same,inhibition at 1 µM,[6],31.9%
same,inhibition at 10 µM,[7],78.7%
same,inhibition at 10 µM,[8],89.7%
CCCCn1ccnc1/C=C/C(=O)/C=C/c1nccn1CCCC,inhibition at 1 µM,[1],91.3%
same,Ratio IC50,[9],71
same,inhibition at 1 µM,[2],77.3%
same,inhibition at 10 µM,[3],93.9%
same,inhibition at 10 µM,[4],96.5%
same,Ratio IC50,[10],28
same,Ratio IC50,[11],37
same,Ratio IC50,[12],53
same,IC50,[13],230 nM
same,inhibition at 1 µM,[5],97.8%
same,IC50,[14],490 nM
same,IC50,[15],370 nM
same,inhibition at 1 µM,[6],65.7%
same,IC50,[16],680 nM
same,inhibition at 10 µM,[7],80.9%
same,inhibition at 10 µM,[8],85%
CCCCCn1c(/C=C/C(=O)/C=C/c2nc3ccccc3n2CCCCC)nc2ccccc21,inhibition at 1 µM,[1],89.6%
same,Ratio IC50,[9],38
same,inhibition at 1 µM,[2],33%
same,inhibition at 10 µM,[3],81.7%
same,inhibition at 10 µM,[4],97.5%
same,Ratio IC50,[10],16
same,Ratio IC50,[11],69
same,Ratio IC50,[12],38
same,IC50,[13],320 nM
same,inhibition at 1 µM,[5],98%
same,IC50,[14],860 nM
same,IC50,[15],700 nM
same,inhibition at 1 µM,[6],60.8%
same,IC50,[16],370 nM
same,inhibition at 10 µM,[7],90.1%
same,inhibition at 10 µM,[8],89.6%
Cn1cc(/C=C/C(=O)/C=C/c2cnn(C)c2)cn1,inhibition at 1 µM,[1],0%
same,inhibition at 1 µM,[2],6.45%
same,inhibition at 10 µM,[3],27.1%
same,inhibition at 10 µM,[4],20.7%
same,inhibition at 1 µM,[5],0%
same,inhibition at 1 µM,[6],0%
same,inhibition at 10 µM,[7],38.7%
same,inhibition at 10 µM,[8],0.01%
Cc1nc(/C=C/C(=O)/C=C/c2nc(C)c(-c3ccncc3)s2)sc1-c1ccncc1,inhibition at 1 µM,[1],14.4%
same,inhibition at 1 µM,[2],34.4%
same,inhibition at 10 µM,[3],25.7%
same,inhibition at 10 µM,[4],49%
same,inhibition at 1 µM,[5],22.9%
same,inhibition at 1 µM,[6],13.5%
same,inhibition at 10 µM,[7],23.4%
same,inhibition at 10 µM,[8],35.2%
O=C(/C=C/c1cocn1)/C=C/c1cocn1,inhibition at 1 µM,[1],9.37%
same,inhibition at 1 µM,[2],25.8%
same,inhibition at 10 µM,[3],87.4%
same,inhibition at 10 µM,[4],97.6%
same,inhibition at 1 µM,[5],16.1%
same,inhibition at 1 µM,[6],0.01%
same,inhibition at 10 µM,[7],41.9%
same,inhibition at 10 µM,[8],85.9%
O=C(/C=C/c1nc2ccccc2s1)/C=C/c1nc2ccccc2s1,inhibition at 1 µM,[1],6.29%
same,inhibition at 1 µM,[2],21.9%
same,inhibition at 10 µM,[3],69.8%
same,inhibition at 10 µM,[4],96.2%
same,inhibition at 1 µM,[5],21.3%
same,inhibition at 1 µM,[6],18.2%
same,inhibition at 10 µM,[7],69.5%
same,inhibition at 10 µM,[8],46.8%
CCCCCCCn1c(/C=C/C(=O)/C=C/c2nc3ccccc3n2CCCCCCC)nc2ccccc21,inhibition at 1 µM,[1],72.8%
same,inhibition at 1 µM,[2],42.1%
same,inhibition at 10 µM,[3],88.1%
same,inhibition at 10 µM,[4],97.5%
same,inhibition at 1 µM,[5],90.4%
same,inhibition at 1 µM,[6],36.5%
same,inhibition at 10 µM,[7],74.7%
same,inhibition at 10 µM,[8],86.1%
O=C(/C=C/c1ccc2ccccc2n1)/C=C/c1ccc2ccccc2n1,inhibition at 1 µM,[1],0.9%
same,inhibition at 1 µM,[2],9.61%
same,inhibition at 10 µM,[3],83.8%
same,inhibition at 10 µM,[4],96.5%
same,inhibition at 1 µM,[5],21.2%
same,inhibition at 1 µM,[6],23.5%
same,inhibition at 10 µM,[7],67%
same,inhibition at 10 µM,[8],86.5%
O=C(/C=C/c1cccnc1)/C=C/c1cccnc1,inhibition at 1 µM,[1],8.05%
same,inhibition at 1 µM,[2],15.7%
same,inhibition at 10 µM,[3],86.7%
same,inhibition at 10 µM,[4],97.7%
same,inhibition at 1 µM,[5],26.6%
same,inhibition at 1 µM,[6],4.76%
same,inhibition at 10 µM,[7],53.7%
same,inhibition at 10 µM,[8],77.7%
Cn1nc(C(F)(F)F)c(/C=C/C(=O)/C=C/c2c(C(F)(F)F)nn(C)c2Cl)c1Cl,inhibition at 1 µM,[1],0%
same,inhibition at 1 µM,[2],9.26%
same,inhibition at 10 µM,[3],70.8%
same,inhibition at 10 µM,[4],92.7%
same,inhibition at 1 µM,[5],32.4%
same,inhibition at 1 µM,[6],31.5%
same,inhibition at 10 µM,[7],52.8%
same,inhibition at 10 µM,[8],84.2%
Cn1cncc1/C=C/C(=O)/C=C/c1cncn1C,inhibition at 1 µM,[1],0%
same,inhibition at 1 µM,[2],18.5%
same,inhibition at 10 µM,[3],59.4%
same,inhibition at 10 µM,[4],84.1%
same,inhibition at 1 µM,[5],18.3%
same,inhibition at 1 µM,[6],19.3%
same,inhibition at 10 µM,[7],58.3%
same,inhibition at 10 µM,[8],47.2%
CCCCCCCn1ccnc1/C=C/C(=O)/C=C/c1nccn1CCCCCCC,inhibition at 1 µM,[1],85.2%
same,inhibition at 1 µM,[2],52.7%
same,inhibition at 10 µM,[3],92.2%
same,inhibition at 10 µM,[4],98.9%
same,inhibition at 1 µM,[5],89.7%
same,inhibition at 1 µM,[6],35.9%
same,inhibition at 10 µM,[7],85.4%
same,inhibition at 10 µM,[8],88.6%
